# Laboratory results reported in PMC10846240, “Pharmacokinetic/pharmacodynamic integration of amphenmulin: a novel pleuromutilin derivative against Mycoplasma gallisepticum” (Microbiology Spectrum, 2023).
# “And” between values parts separate entries of the source, which are not always exact repeats. Equal values may be shown once. Read-outs that look alike come from different tables or passages of the source.
# Experiments:
# [1] = parameters: method as in PMID 32079232; conditions: mice; cited from earlier work
# [2] = tested on: M. gallisepticum S6 strain; test: Susceptibility assay, agar dilution (MIC, MIC99, MPC); format: cell-based, Mycoplasma gallisepticum; parameters: MPC: unit not given here
# Procedure: (§1) The minimum inhibitory concentration (MIC) of amphenmulin against M. gallisepticum S6 strain was determined with reference to the protocols previously reported ([16], [17]). The broth microdilution method was performed using 96-well plates to achieve a final titer of approximately 10^7 colony-forming units (CFU)/mL of M. gallisepticum in each well. The final concentrations tested of amphenmulin ranged from 0.488 × 10^−3 to 0.125 µg/mL. Concurrently, a growth control (without drug), an end-point control (blank medium), and a sterile control (sterile broth) were also implemented. […] For the agar dilution method, M. gallisepticum was inoculated and cultured on agar plates containing a twofold dilution series of amphenmulin concentrations, and the MIC was the lowest drug concentration that inhibited growth. Additionally, following the procedure of broth microdilution, the initial culture before incubation and the samples from wells where the color remained unchanged after 48 h of incubation were subjected to 10-fold serial dilutions. Each dilution sample (10 µL) was then plated on drug-free agar for colony counting.
# We also determined the minimum concentration inhibiting colony formation by 99% (MIC99) of amphenmulin against the S6 strain by slightly modifying the existing methods ([18], [19]). […] By counting the colony growth of M. gallisepticum inoculated on these drug-containing agar plates and performing linear regression with drug concentration, we calculated the amphenmulin concentration that inhibits 99% growth of the S6 strain.
# Furthermore, we determined the mutant prevention concentration (MPC) of amphenmulin against the S6 strain by agar dilution method ([20]). Briefly, M. gallisepticum at exponential phase was enriched to ≥10^9 CFU/mL by centrifugation and cultured as described above. The lowest drug concentration that inhibited mycoplasma growth in the agar plate was determined as the primary MPC (MPCpr), and the determination was repeated after linearly reducing the MPCpr to 0.5 MPCpr at 10% drug concentration. The final mycoplasma-free growth concentration was the MPC. All the experiments of the above pharmacodynamic studies were conducted in triplicate.
# [3] = tested on: methicillin-resistant Staphylococcus aureus (MRSA); conditions: cited from earlier work
# [4] = tested on: M. gallisepticum S6 strain; test: Susceptibility assay, broth microdilution (MIC, MBC); format: cell-based, Mycoplasma gallisepticum
# Procedure: as §1
# [5] = In vivo pharmacokinetics of amphenmulin in chickens (IV, IM, PO); conditions: for Cmax: mean ± SD, n = 10; for bioavailability: read-out: F (absolute bioavailability)
# Procedure: The M. gallisepticum standard strain S6 was obtained from the National Center for Veterinary Culture Collection (Beijing, China). Amphenmulin (98%) was synthesized by our laboratory according to the published methods ([10]). Acetonitrile and all other liquid chemicals used were purchased from Macklin Biochemical Technology Co., Ltd (Shanghai, China). M. gallisepticum in this study was cultured under standard conditions of 37°C with the following nutrients: swine serum, M. gallisepticum artificial medium base from Qingdao Hope Biological Technology Co., Ltd (Qingdao, China), nicotinamide adenine dinucleotide (NADH) and cysteine from Aladdin Biochemical Technology Co., Ltd (Shanghai, China). Thirty healthy adult yellow-feathered broilers weighing 1.58 to 2.04 kg were used in this study, caged, fed without antibiotics and anticoccidial drugs, and watered and fed ad libitum. All animal experimental procedures were approved by the Animal Ethics Committee of South China Agricultural University (Approval number: 2023a015).
# In this study, the dose design for the administration of amphenmulin was mainly based on the previous study report on tiamulin ([15]). The chickens were randomly divided into three groups (10 per group) and given a single dose of 20 mg/kg of body weight (bw.) of amphenmulin via intravenous, intramuscular injection, and oral gavage, respectively. Blood samples were collected from the brachial wing vein of each chicken at 0, 5, 10, 15, 30, 45 min, 1, 2, 3, 4, 6, 8, 10, 12, 24 h after intravenous injection, and at 0, 3, 6, 9, 12, 20, […], 45 min, 1, 2, 4, 8, 12, 24 h after oral and intramuscular administrations. The blood samples were centrifuged at 3,500 rpm for 10 min. The plasma was collected and stored at −20°C until analysis.
# After the plasma samples were restored to room temperature, 200 µL was taken and vortexed with 800 µL of acetonitrile, centrifuged at 12,000 rpm for 10 min. The supernatant was filtered through a 0.22-µm filter and analyzed using a high-performance liquid chromatography-tandem mass spectrometry (HPLC-MS/MS) system (Agilent 1200 HPLC and Applied Biosystem API4000 mass spectrometer, ABI Sciex, USA). Amphenmulin was separated on a C18 column (150 mm × 2 mm, 5 µm) at a flow rate of 0.5 mL/min, with a mobile phase of 0.1% aqueous formic acid and acetonitrile (40:60, vol/vol). The electrospray ionization (ESI) source of the mass spectrometer was operated in positive ion mode for multi-reaction monitoring, with the following ion source parameters: ion spray voltage 4,500 V, collision gas 5 psi, ion source gas1 50 psi, ion source gas2 55 psi, curtain gas 20 psi, source temperature 400°C.
# Additionally, the plasma concentration–time data of amphenmulin in each individual were further analyzed using the non-compartmental method in Phoenix 8.1 (Certara, USA) to calculate pharmacokinetic parameters, in which the area under the curve (AUC) was calculated using the log-linear trapezoidal method, and the results were reported as mean ± standard deviation (SD).
# [6] = parameters: method as in PMID 29722184, PMID 32079232; conditions: cited from earlier work
# [7] = Mycoplasmoides gallisepticum, S6STRAIN
# [8] = yellow-feathered broilers, plasma, 20 mg/kg bw., IM
# [9] = yellow-feathered broilers, plasma, 20 mg/kg bw., IV
# [10] = yellow-feathered broilers, plasma, 20 mg/kg bw., PO
smiles,measurement,setting,value
"C=C[C@]1(C)C[C@@H](OC(=O)CSc2ccccc2N)[C@]2(C)[C@H](C)CC[C@]3(CCC(=O)[C@H]32)[C@@H](C)[C@@H]1O [amphenmulin, 22-(2-amino-phenylsulfanyl)-22-deoxypleuromutilin]",oral bioavailability,[1],13.65%
same,MPC relative to MIC99,[2],about 6.5 times
same,MIC,[2]; [7],7.8 ng/mL
same,MIC99,[2]; [7],7.7 ng/mL
same,MPC,"[2]; agar dilution, inoculum 10^9 CFU/mL",0.0500
same,mutation selection window (MSW),[2]; between MIC99 and MPC,0.77 × 10^−2–0.05 µg/mL
same,antibacterial activity against MRSA compared with tiamulin,[3],better antibacterial activity
same,"static kill curve against MRSA, character of effect",[3],more time-dependent tendency and bacteriostatic effects
same,MIC,"[4]; Mycoplasmoides gallisepticum, S6STRAIN, broth microdilution, inoculum 10^7 CFU/mL, strain S6",3.9 ng/mL
same,MBC,"[4]; Mycoplasmoides gallisepticum, S6STRAIN, inoculum 10^7 CFU/mL, reduction > 3 Log10CFU/mL after 48 h",15.6 ng/mL
same,"MIC at inoculum levels of 107, 106, and 105",[4]; early pre-experiments (response to reviewer),no significant difference
same,T1/2Ke,"[5]; 20 mg/kg bw., IM",5.50 ± 1.43 h
same,T1/2Ke,"[5]; 20 mg/kg bw., IV, 20 mg/kg",2.13 h and 2.13 ± 0.63 h
same,T1/2Ke,"[5]; 20 mg/kg bw., PO",2.60 ± 0.87 h
same,oral absorption rate constant (Ka),"[5]; oral, residual method",approximately 3.15 1/h
same,Tmax,"[5]; yellow-feathered broilers, chicken, plasma, other: oral and intramuscular, 20 mg/kg bw., two extravascular routes (oral and intramuscular), read-out: time to peak levels after administration",< 0.5 h
same,AUC(0-inf),[5]; [8],9850 ± 2720 ng·h/mL
same,AUC(0-t),[5]; [8],9160 ± 2650 ng·h/mL
same,MRT,[5]; [8],7.89 ± 2.75 h
same,k el,[5]; [8],3.61e-05 s⁻¹
same,Cmax,[5]; [8],1930 ± 480 ng/mL
same,bioavailability,[5]; [8],52.1%
same,Tmax,"[5]; yellow-feathered broilers, plasma, 20 mg/kg bw., IM, read-out: Tmax",0.38 ± 0.2 h
same,AUC(0-inf),[5]; [9],18900 ± 6030 ng·h/mL
same,AUC(0-t),[5]; [9],18800 ± 6090 ng·h/mL
same,MRT,[5]; [9],3.13 ± 1.05 h
same,clearance,[5]; [9],19.5 mL/min/kg
same,k el,[5]; [9],9.72e-05 s⁻¹
same,Vd,"[5]; yellow-feathered broilers, plasma, 20 mg/kg bw., IV, read-out: Vss",3.64 ± 1.58 L/kg
same,AUC(0-inf),[5]; [10],1110 ± 430 ng·h/mL
same,AUC(0-t),[5]; [10],1060 ± 400 ng·h/mL
same,MRT,[5]; [10],2.98 ± 1.05 h
same,k el,[5]; [10],8.06e-05 s⁻¹
same,Cmax,[5]; [10],730 ± 360 ng/mL
same,bioavailability,[5]; [10],5.88%
same,Tmax,"[5]; yellow-feathered broilers, plasma, 20 mg/kg bw., PO, read-out: Tmax",0.25 ± 0.11 h
same,acute toxicity,[6],practically non-toxic
